What was measured:
α3β2 nicotinic receptor = α3β2 nicotinic receptor (Homo sapiens, UniProt P17787+P32297); settings: Column A with α3β2, 24 cm, 50 nM injection, 10 mM Amm Acetate pH 7.4 and 1 nM dinitrobenzoic acid, 261 nm
Protocol: (§1) A parallel screen was run using two separate columns containing the different nicotinic receptors α3β2 and […] in the separate columns. […] The mobile phase contained 10 mM Amm Acetate at pH 7.4 and 1 nM Dinitrobenzoic acid. The columns were 24 cm in length.

α3β4 nicotinic receptor = α3β4 nicotinic receptor (Homo sapiens, UniProt P30926+P32297); settings: Column B with α3β4, 24 cm, 50 nM injection, 10 mM Amm Acetate pH 7.4 and 1 nM dinitrobenzoic acid, 261 nm
Chain of α3β4 nicotinic receptor (P32297 32-505): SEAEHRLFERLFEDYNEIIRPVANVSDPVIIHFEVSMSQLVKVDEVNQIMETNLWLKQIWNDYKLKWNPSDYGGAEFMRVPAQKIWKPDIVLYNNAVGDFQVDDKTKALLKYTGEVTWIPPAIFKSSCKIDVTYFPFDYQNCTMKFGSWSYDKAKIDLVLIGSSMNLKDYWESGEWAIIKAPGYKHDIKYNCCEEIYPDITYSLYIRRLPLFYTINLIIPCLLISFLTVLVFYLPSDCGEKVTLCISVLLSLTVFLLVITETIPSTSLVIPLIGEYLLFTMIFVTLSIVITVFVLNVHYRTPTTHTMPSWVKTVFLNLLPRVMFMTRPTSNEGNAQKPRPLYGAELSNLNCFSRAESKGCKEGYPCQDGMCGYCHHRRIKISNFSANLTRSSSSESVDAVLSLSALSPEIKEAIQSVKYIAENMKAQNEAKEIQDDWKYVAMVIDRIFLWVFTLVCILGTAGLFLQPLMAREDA
Chain of α3β4 nicotinic receptor (P30926 22-498): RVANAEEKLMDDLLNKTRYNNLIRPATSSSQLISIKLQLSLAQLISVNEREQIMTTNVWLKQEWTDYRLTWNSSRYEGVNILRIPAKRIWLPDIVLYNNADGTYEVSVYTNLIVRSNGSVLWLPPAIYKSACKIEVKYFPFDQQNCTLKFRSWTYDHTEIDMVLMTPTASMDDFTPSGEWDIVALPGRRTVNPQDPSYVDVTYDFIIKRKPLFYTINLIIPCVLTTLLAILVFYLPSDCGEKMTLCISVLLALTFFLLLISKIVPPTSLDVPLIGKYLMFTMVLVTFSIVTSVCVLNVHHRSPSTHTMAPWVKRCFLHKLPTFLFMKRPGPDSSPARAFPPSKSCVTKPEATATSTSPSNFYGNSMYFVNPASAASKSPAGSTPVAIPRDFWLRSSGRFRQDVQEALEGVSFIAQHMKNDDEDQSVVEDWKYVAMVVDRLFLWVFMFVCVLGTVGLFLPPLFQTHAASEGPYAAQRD
Protocol: as §1

Chain of α3β2 nicotinic receptor (P32297 32-505): as the sequence (P32297 32-505) above
Chain of α3β2 nicotinic receptor (P17787 26-502): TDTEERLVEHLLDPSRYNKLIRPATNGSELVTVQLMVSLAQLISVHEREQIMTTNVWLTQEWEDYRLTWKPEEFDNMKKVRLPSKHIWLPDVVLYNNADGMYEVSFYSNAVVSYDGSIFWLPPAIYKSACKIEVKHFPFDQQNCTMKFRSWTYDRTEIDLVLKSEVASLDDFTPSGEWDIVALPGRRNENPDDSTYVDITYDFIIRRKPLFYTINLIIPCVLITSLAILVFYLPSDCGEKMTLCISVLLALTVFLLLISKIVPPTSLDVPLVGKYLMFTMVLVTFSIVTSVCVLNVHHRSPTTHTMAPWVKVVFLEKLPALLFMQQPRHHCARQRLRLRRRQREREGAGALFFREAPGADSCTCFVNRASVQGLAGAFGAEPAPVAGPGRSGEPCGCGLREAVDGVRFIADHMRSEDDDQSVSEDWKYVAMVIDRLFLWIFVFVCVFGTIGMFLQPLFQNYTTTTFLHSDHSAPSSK

CN1CCCC1c1cccnc1 (centres unmarked) [nicotine]
time on receptor column (α3β2 nicotinic receptor): 2.25 min
time on receptor column (α3β4 nicotinic receptor): 0.98 min

From US20030150812A1, “Novel parallel throughput system” (priority 2001, published 2003)
